Source: patent publication US8372832B2 (priority 2006, dated 2013)

Biological target: α7-subtype of nicotinic receptors (Rattus norvegicus, UniProt Q05941)
Assay: biochemical
Assay type: binding

Chain of α7-subtype of nicotinic receptors (Q05941 23-502): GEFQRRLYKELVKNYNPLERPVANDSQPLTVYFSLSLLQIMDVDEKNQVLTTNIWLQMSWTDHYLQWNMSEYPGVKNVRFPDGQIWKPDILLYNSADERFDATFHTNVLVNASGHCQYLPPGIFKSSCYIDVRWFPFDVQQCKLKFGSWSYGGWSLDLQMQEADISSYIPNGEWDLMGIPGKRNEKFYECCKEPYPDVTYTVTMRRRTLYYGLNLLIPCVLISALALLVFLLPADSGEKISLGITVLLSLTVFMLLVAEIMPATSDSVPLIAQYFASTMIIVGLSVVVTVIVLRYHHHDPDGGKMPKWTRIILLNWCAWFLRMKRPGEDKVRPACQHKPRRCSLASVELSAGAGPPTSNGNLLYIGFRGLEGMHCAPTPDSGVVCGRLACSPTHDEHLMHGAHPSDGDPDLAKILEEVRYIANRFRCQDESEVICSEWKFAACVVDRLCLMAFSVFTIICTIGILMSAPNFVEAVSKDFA

## Brc1ccc(-c2nnc(N3CCN4CCC3CC4)o2)o1 [Compound A1, 4-[5-(5-Bromo-furan-2-yl)-[1,3,4]oxadiazol-2-yl]-1,4-diaza-bicyclo[3.2.2]nonane]
  IC50: < 10 nM
